The values that follow come from article PMC7504818, “Synthetic Analogues of Aminoadamantane as Influenza Viral Inhibitors—In Vitro, In Silico and QSAR Studies” (Molecules, 2020).

Bounds are passed on as bounds.

One data set relates to MDCK cells. Particulars: high-nontoxic concentration, MDCK cells.
Data set [1] can be described thus: in vitro. To be noted: dog.
Data set [2] can be described thus: in vitro. The format is in vitro ADME. To be noted: human, plasma. The method, then: The separation of glycyl-rimantadine (4b) and Ala-rimantadine (4a) (internal standard, IS) was performed on an ultra-high-performance liquid chromatography (UHPLC) system (Bruker Daltonics, Germany), utilizing an RP Kinetex C18 column 100 mm × 2.1 mm, 2.6 μm, with a proguard column 2.1 mm (Phenomenex, USA). The mobile phase was composed of formic acid 0.1% in water (A) and acetonitrile (B). Gradient elution was chosen for the analysis, at a constant flow rate of 0.25 mL min^−1 and the following gradient profile: initial phase (B) concentration of 5% until 0.3 min, then increased to 80% within 1.2 min, kept constant for 1 min at 80% and then reduced to 5% at 2.6 min, until the end of the run at 4 min. The temperature in the autosampler and the column oven was maintained at 15 °C and 40 °C, respectively. The sample injection volume was set to 5 μL.
The EVOQ Elite ER (Bruker Daltonics, Germany) triple quadrupole mass spectrometer was operated in positive ionization electrospray mode (ESI) in multiple reaction monitoring (MRM) for the detection of glycyl-rimantadine (4b) and IS. The optimal MRM transitions for monitoring the analytes were determined and set as follows: m/z 237.1 → 163.2, 237.1 → 75.5 and 237.1 → 81.4 for glycyl-rimantadine and 251.1 → 163.2, 251.1 → 89.4 and 251.1 → 180.2 for the IS. The optimum ESI parameters were determined and set as follows: spray voltage at 4500 V; heated probe gas flow at 50 units; heated probe temperature at 150 °C; cone gas flow at 20 units; cone temperature at 300 °C and nebulizer gas flow at 50 units. The control of the LC and the MS, as well as the data acquisition, was performed using the MSWS software, version 8.2.1 (Bruker Datonics, Germany). […]
The in vitro plasma stability of glycyl-rimantadine (4b) was conducted by LC–MS/MS. […] The glycyl-rimantadine (4b) concentration was calculated via the standard calibration curve that was designed by plotting the area of the conjugate versus the IS area against the nominal concentration of the calibration standards. […]

For data set [3], the system named is influenza virus A/H3N2, strain Hong Kong 68. Description: Antiviral activity against influenza virus A/H3N2, strain Hong Kong 68 (crystal violet uptake assay in MDCK cells). The format is cell-based. Particulars: Influenza A virus, H3N2, MDCK, read-out: IC50 (μM) Against A/Hong Kong/68. The method, then:
The synthesized compounds were tested for antiviral activity against the influenza virus A/H3N2, strain Hong Kong 68.
In order to identify new potential antiviral drugs, small amounts of extracts or compounds have to be examined for cytotoxicity and antiviral activity in primary screening using a rapid, easy, inexpensive and highly standardized test system. The cytotoxic and the antiviral effects were quantified using a crystal violet uptake assay allowing automated handling of large numbers of candidate agents. […] Madin-Darby Kanine Kidney Cells (MDCK) cells were seeded at 2 × 10^4 cells per well in 96-well flat-bottomed microtiter plates (Falcon 3075). The cytotoxicity of the test compounds was determined on 2-day-old confluent MDCK cell monolayers grown in the internal 60 wells (5% CO2, 37 °C). After removal of the growth medium, two-fold dilutions of the compounds in 100 µL test medium were added and incubated at 37 °C in a 5% CO2 atmosphere for 72 h. Cells in six wells without compound treatment served as basic controls. The Dynex Immuno Assay System (DIAS, Guernsey, UK) developed for automated ELISA techniques was applied to wash gently, stain, measure and analyze the viability of the cell monolayers in cytotoxic, as well as antiviral assays. The staining procedure undertaken with crystal violet was based on the principles described by Nain et al. for the determination of the cytotoxic activity of TNF-α [20]. At first, the supernatant was aspirated and the cell monolayers were washed three times with […] physiological sodium chloride solution to remove dead cells. Secondly, the cells were fixed and stained in one step with 50 µL of 0.03% crystal violet (w/v) in 20% methanol for 10 min. […] Then the optical density of individual wells was quantified spectrophotometrically at 540/630 nm and analyzed with the DIAS. Cell viability was evaluated as the percentage of the mean value of optical density, resulting from the six cell controls, which was set 100%. The 50% cytotoxic concentrations (CC50) were calculated from the mean dose–response curves of three assays each with two parallels.
To exclude non-specific antiviral activities of test compounds, their cytotoxic effects have to be determined not only on confluent cell monolayers but also on proliferating cell cultures in the primary antiviral screening. The cytotoxicity and the growth inhibition of compounds were quantified using an automated crystal violet staining procedure and the electronic cell analyzer system CASY 1, respectively, on day 3 after compound application. The 50% cytotoxic and growth inhibition concentrations were calculated from the mean dose–response curve (3.9 through 1000 µg mL^−1; dilution factor 2) of three separate experiments each with two parallels in the indicated cell lines.

Details of data set [4]: method as in doi:10.1177/095632029200300305, PMID 9706043, PMID 19116869. Particulars: orally introduced; cited from earlier work.

One may read the fraction remaining as the share of the starting amount still present when the sample was taken. A low value points to a greater loss. `CC(NC(=O)CN)C12CC3CC(CC(C3)C1)C2` (stereo not shown) [Compound 4b, glycyl-rimantadine]: the “HNTC (μM) MDCK Cells” value with MDCK cells was found to be 13.89 µM. In “in vitro [1]”, this compound had a CC50 of over 100000 nM. For the same compound, in “in vitro [2]”, the fraction remaining at 6 h, 1.58 µg/mL is 97.5%; the amount remaining at 12 h, 1.58 µg/mL was about 91%; the fraction remaining at 24 h, 1.58 µg/mL was 83.7%. Moreover, the IC50 in data set [3] was determined as 0.11 µM.

Consider `CC(C)[C@H](N)C(=O)OCCOCn1cnc2c(=O)[nH]c(N)nc21` [Valacyclovir], for which the “bioavailability, times higher than acyclovir” value in data set [4] is given as 3–4 times.
